Measured values as given in ChEMBL document CHEMBL1201862, “PubChem BioAssay data set” (2004).
Activity calls are given as the source filed them. Rule as the data show it, for most assays here: actives have a measured EC50 and inactives only a lower limit.

What was measured:
[1] = inhibitors of intracellular T. cruzi replication, confirmation, NIH3T3 host cells, beta-gal luminescence (AID 2044); assay type: functional, cell-based;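 also: intracellular parasites grown in NIH/3T3 mouse fibroblasts as host cells; luminescent beta-galactosidase reporter signal from transgenic T. cruzi replicating inside host cells; inhibitors lower the luminescence signal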
[2] = tested on: Streptococcus; assay: Group A Streptococcus viability loss, dose response, counter-screen for streptokinase expression inhibitor project, luminescence, BacTiterGlo (AID 1915); assay type: functional, organism-based;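 also: potency for reduction of bacterial viability or growth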
[3] = tested on: Streptococcus sp. 'group A'; assay: growth inhibition of control SK(-) GAS strain, dose response, counter-screen for streptokinase expression inhibitor project, luminescence, kanamycin, BacTiterGlo, confirmation (AID 1900); assay type: functional, organism-based
[4] = target: T1, Cytochrome P450 1A2 (Homo sapiens, UniProt P05177);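 also: PubChem cytochrome P450 panel assay, CYP1A2 panel member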
T1 sequence (P05177 whole entry): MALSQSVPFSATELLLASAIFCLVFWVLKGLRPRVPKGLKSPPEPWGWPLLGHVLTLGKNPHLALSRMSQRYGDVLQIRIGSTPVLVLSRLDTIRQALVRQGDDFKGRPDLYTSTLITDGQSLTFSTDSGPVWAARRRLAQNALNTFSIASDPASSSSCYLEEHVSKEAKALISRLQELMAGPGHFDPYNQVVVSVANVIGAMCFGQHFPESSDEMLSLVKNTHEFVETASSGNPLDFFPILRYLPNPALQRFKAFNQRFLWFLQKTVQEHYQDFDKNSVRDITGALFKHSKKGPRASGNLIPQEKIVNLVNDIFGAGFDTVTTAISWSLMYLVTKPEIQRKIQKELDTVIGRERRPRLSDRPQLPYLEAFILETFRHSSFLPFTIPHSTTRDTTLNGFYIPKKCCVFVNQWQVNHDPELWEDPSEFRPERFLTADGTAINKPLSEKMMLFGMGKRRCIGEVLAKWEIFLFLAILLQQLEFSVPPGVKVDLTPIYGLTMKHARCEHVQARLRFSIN

[5] = cytotoxicity toward NIH3T3 fibroblasts, dose response, counter-screen, cell-based, ATP luminescence, mouse fibroblasts (AID 2010); assay type: functional;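 also: cells exposed to compound for about 90 hours before reading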
[6] = target: T2, Streptokinase A (Streptococcus pyogenes serotype M1, UniProt P10520); assay: S. pyogenes streptokinase expression inhibitors, potency, dose response, plasminogen activation absorbance, OD405 (AID 1914); assay type: functional, Streptococcus pyogenes M1 GAS;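 also: secreted streptokinase activity via plasminogen activation per viability signal from cell pellet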
T2 sequence (P10520 whole entry): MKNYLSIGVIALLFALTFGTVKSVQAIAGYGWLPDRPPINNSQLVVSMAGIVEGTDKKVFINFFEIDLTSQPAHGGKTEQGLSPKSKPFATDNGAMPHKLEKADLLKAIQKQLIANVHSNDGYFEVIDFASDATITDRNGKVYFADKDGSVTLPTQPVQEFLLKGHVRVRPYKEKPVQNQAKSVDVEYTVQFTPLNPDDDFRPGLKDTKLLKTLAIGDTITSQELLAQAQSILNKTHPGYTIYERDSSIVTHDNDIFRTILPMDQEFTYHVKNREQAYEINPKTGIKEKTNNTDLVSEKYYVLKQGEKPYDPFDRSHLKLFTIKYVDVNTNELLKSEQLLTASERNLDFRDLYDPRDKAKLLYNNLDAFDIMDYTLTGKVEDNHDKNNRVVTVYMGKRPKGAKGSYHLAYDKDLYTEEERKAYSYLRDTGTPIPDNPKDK

[7] = target: T3, Corticotropin-releasing factor receptor 2/Corticotropin-releasing factor-binding protein (Homo sapiens, UniProt P24387+Q13324); assay: activators of CRF receptor 2 with binding protein – uHTS hits, confirmation (AID 602473); assay type: functional; details: read-out: EC50_Mean
T3 sequence (Q13324 whole entry): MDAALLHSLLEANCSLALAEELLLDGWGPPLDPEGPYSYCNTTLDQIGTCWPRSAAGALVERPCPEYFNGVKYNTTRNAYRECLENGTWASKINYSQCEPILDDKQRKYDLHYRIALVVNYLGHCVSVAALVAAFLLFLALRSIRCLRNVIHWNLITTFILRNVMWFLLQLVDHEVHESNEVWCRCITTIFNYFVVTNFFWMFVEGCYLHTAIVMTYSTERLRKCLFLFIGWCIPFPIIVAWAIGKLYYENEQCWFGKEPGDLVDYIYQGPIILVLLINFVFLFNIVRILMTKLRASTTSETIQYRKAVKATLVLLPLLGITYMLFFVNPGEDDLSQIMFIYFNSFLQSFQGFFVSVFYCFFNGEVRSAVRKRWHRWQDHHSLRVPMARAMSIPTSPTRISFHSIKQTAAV
T3 sequence (P24387 whole entry): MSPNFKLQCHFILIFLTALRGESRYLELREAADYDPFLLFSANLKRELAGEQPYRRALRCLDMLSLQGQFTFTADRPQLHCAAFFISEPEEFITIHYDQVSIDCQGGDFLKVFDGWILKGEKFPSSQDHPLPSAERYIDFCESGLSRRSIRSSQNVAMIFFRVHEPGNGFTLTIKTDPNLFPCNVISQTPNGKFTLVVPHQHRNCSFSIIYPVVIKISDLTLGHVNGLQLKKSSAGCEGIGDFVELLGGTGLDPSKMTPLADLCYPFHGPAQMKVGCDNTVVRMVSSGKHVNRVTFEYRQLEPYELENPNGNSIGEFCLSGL

## COC(=O)C1=CN(Cc2ccc(OC)c(OC)c2)C=C(C(=O)OC)C1c1cccs1
[1]
  EC50: 0.707 µM (active)

## Cc1ccc(NC(S)=NC2CCSc3ccccc32)cc1C (stereo not given)
[2]
  EC50: > 150 µM (not active)
[3]
  EC50: 20.6 µM (active)

## CNC(=O)[C@H](C)[C@H]1C[C@]1(C)[C@H](NC(=O)OCc1ccccc1)c1ccccc1
[4]
  AC50: 20 µM (inconclusive)

## O=c1[nH]c(=O)c2cc([N+](=O)[O-])cc([N+](=O)[O-])c2[nH]1
[1]
  EC50: 1.04 µM (active)
[5]
  EC50: > 30 µM (not active)

## Cn1c(Oc2ccccc2NCc2cc(Br)ccc2O)cc(=O)n(C)c1=O
[2]
  EC50: 16.1 µM (active)
[3]
  EC50: 6.42 µM (active)
[6]
  EC50: > 150 µM (not active)

## Cc1cccc(NC(=O)C(=O)NNC(=O)c2ccc(C(C)(C)C)cc2)c1
[2]
  EC50: 25.4 µM (active)
[3]
  EC50: 9.34 µM (active)
[6]
  EC50: > 150 µM (not active)

## CCOc1ccc(C)cc1S(=O)(=O)NC1CCCCCC1
[2]
  EC50: > 150 µM (not active)
[3]
  EC50: > 150 µM (not active)
[6]
  EC50: > 150 µM (not active)

## CC1(C)CC(=O)c2c(n(S(=O)(=O)c3ccccc3)c3ccc(NS(=O)(=O)c4ccccc4)cc23)C1
[1]
  EC50: 1.03 µM (active)
[5]
  EC50: 10.6 µM (active)

## CN1C(=O)C(=Cc2ccc(N3CCOCC3)o2)C(=O)N(C)C1=S
[7]
  EC50: 7.57 µM (active)

## CCCOc1ccc(CNCCCOCC)cc1OC
[1]
  EC50: 0.344 µM (active)
[5]
  EC50: > 60 µM (inconclusive)

## COc1ccc(NC(=O)CSc2ccc3nnc(-c4ccccn4)n3n2)c(OC)c1
[2]
  EC50: > 150 µM (not active)
[3]
  EC50: > 150 µM (not active)
[6]
  EC50: > 150 µM (not active)

## Cc1ccccc1-n1nc(C(=O)c2cccs2)cc(-c2nc3ccccc3[nH]2)c1=N
[2]
  EC50: 3.73 µM (active)
[3]
  EC50: 2.99 µM (active)

## COc1cc(CNCCc2ccccc2F)ccc1OCC(=O)N1CCCCC1
[1]
  EC50: 0.393 µM (active)
[5]
  EC50: > 30 µM (not active)

## O=C1c2cccnc2C(=O)N1Cc1ccc(F)cc1
[4]
  AC50: 17.8 µM (inconclusive)

## O=[N+]([O-])c1cc(-c2n[nH]c(-c3ccccc3)n2)cc([N+](=O)[O-])c1
[1]
  EC50: 0.475 µM (active)
[5]
  EC50: > 60 µM (not active)

## CCOC(=O)c1ccc(OC(=O)CCCCCNC(=N)N)cc1 [GABEXATE]
[4]
  AC50: 15.8 µM (inconclusive)

## CC1CCCC(C)N1S(=O)(=O)c1ccc(S(=O)(=O)NCCc2ccncc2)cc1 (stereo not given)
[1]
  EC50: 2.83 µM (active)
[5]
  EC50: > 60 µM (not active)

## CCc1ccc(CN(Cc2cccnc2)C(=O)/C=C/c2ccc(OC)cc2)cc1
[1]
  EC50: 0.375 µM (active)
[5]
  EC50: > 30 µM (not active)

## COc1ccc(C(=O)Nc2c3c(nn2-c2ccc([N+](=O)[O-])cc2)CS(=O)(=O)C3)cc1
[2]
  EC50: > 150 µM (not active)
[3]
  EC50: 16.1 µM (active)
[6]
  EC50: > 150 µM (not active)

## CCOC(=O)N1CCN(c2c(O)nc3ccc(Cl)cc3c2-c2ccccc2)CC1
[4]
  AC50: 0.158 µM (inconclusive)

## Cc1ccc2cc(/C=N/NC(=O)[C@H]3C[C@@H]3c3ccccc3)c(Cl)nc2c1
[1]
  EC50: 2.26 µM (active)
[5]
  EC50: > 60 µM (not active)

## O=C(O)c1ccc(N2C=[N+]3C(=Nc4ccccc43)C2)cc1
[4]
  AC50: 5.01 µM (inconclusive)

## CCOc1ccc(NS(=O)(=O)c2cc(NC(=O)c3ccc(C)cc3)ccc2Cl)cc1
[2]
  EC50: 6.62 µM (active)
[3]
  EC50: 12.5 µM (active)

## Cc1cc(C)nc(N=C(NCCc2c[nH]c3ccccc23)NC(=O)Nc2ccc(Cl)c(Cl)c2)n1
[1]
  EC50: 1.62 µM (active)
[5]
  EC50: > 60 µM (not active)

## Cc1ccc(C(=O)N2CCOCC2)cc1S(=O)(=O)N1CCOCC1
[2]
  EC50: > 150 µM (not active)
[3]
  EC50: > 150 µM (not active)
[6]
  EC50: > 150 µM (not active)

## N#Cc1c(NC(=S)NC(=O)c2ccccc2)sc2c1CCN(CCc1ccccc1)C2
[1]
  EC50: 0.717 µM (active)
[5]
  EC50: > 60 µM (not active)

## CN1CCN(c2ncc3nc(-c4cn(C)c5ccccc45)c(=O)n(-c4ccccc4)c3n2)CC1
[4]
  AC50: 15.8 µM (inconclusive)

## N#Cc1ccccc1Cn1cc(/C=N/Nc2ccc([N+](=O)[O-])cn2)c2ccccc21
[1]
  EC50: 1.94 µM (active)
[5]
  EC50: > 60 µM (inconclusive)

## COc1ccccc1C(c1nnnn1Cc1ccco1)N1CCN(c2cccc(C)c2C)CC1 (stereo not given)
[1]
  EC50: 1.84 µM (active)
[5]
  EC50: > 60 µM (not active)

## O=C(N[C@@H](c1ccccc1)[C@@H]1C[C@H]1C(=O)O)OCc1ccccc1
[4]
  AC50: 20 µM (inconclusive)

## COc1ccc(/C=C/c2ccncc2)cc1
[1]
  EC50: 0.529 µM (active)
[5]
  EC50: > 60 µM (not active)

## COc1ccccc1CNc1ncnc2ccc(-c3ccccc3CN(C)C)cc12
[4]
  AC50: 15.8 µM (inconclusive)

## COc1ccccc1C(=O)NC(=S)Nc1ccc(N2CCCC2)cc1
[1]
  EC50: 1.97 µM (active)
[5]
  EC50: > 60 µM (not active)

## CCCCn1c(=N)c(S(=O)(=O)c2ccc(Br)cc2)cc2c(=O)n3cccc(C)c3nc21
[7]
  EC50: > 53 µM (inactive)

## COC(=O)[C@@]12CCCN1[C@H](c1ccc(-c3cccc(Cl)c3)c(OC)c1)[C@H]1C(=O)N(C)C(=O)[C@H]12
[2]
  EC50: > 150 µM (not active)
[3]
  EC50: 105 µM (active)
[6]
  EC50: > 150 µM (not active)

## COc1ccc(NS(=O)(=O)c2ccc(C(=O)N3CCC(C)CC3)cc2)cc1
[7]
  EC50: 9.87 µM (active)

## CCOc1cccc2sc(N(CCCN(C)C)C(=O)c3ccc(S(=O)(=O)N(C)c4ccccc4)cc3)nc12
[1]
  EC50: 1.52 µM (active)
[5]
  EC50: > 60 µM (not active)

## CC1CC(C)CN(C2CCCCC2NS(=O)(=O)c2ccc(Cl)cc2)C1 (stereo not given)
[7]
  EC50: 6.53 µM (active)

## C=CCn1c(Oc2ccc(C(=O)OC)cc2)nc2c1c(=O)n(C)c(=O)n2C
[2]
  EC50: > 150 µM (not active)
[3]
  EC50: 12.4 µM (active)
[6]
  EC50: > 150 µM (not active)

## Cc1ccc(NC(=S)NC2CCSc3ccccc32)cc1C (stereo not given)
[6]
  EC50: 24.3 µM (active)

## COc1ccc(CN(C(=O)c2ccc(-c3ccccc3)[nH]2)C(C(=O)NC(C)(C)C)c2ccncc2)cc1 (stereo not given)
[1]
  EC50: 0.706 µM (active)
[5]
  EC50: > 60 µM (not active)

## Cc1c(-n2cc(C(=O)c3cc(F)ccc3O)cc(C#N)c2=O)c(=O)n(-c2ccccc2)n1C
[7]
  EC50: > 53 µM (inactive)

## Clc1ccc(C2C3=C(Nc4ncnn42)c2ccccc2CC3)cc1 (stereo not given)
[2]
  EC50: 43.2 µM (active)
[3]
  EC50: 7.5 µM (active)
[6]
  EC50: > 150 µM (not active)

## CN1CCN(c2ncnc3sc(-c4ccccc4)cc23)CC1
[1]
  EC50: 0.314 µM (active)
[5]
  EC50: > 60 µM (not active)

## CCOC(=O)N1CCN(CC(O)c2ccc3cc[nH]c3c2)CC1 (stereo not given)
[7]
  EC50: > 53 µM (inactive)

## CCC(N=C(S)NC1CCCCC1)c1ccc(C(C)C)cc1 (stereo not given)
[2]
  EC50: 82 µM (active)
[3]
  EC50: 10.7 µM (active)
